# Source: ChEMBL document CHEMBL1201862, “PubChem BioAssay data set” (2004)
# Active and inactive are the calls of the source.
# Assays:
# [1] = growth suppression of PTEN-null colon cells, dose response, cell-based, HCT116 PTEN knockout (AID 1047); type: functional;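 also: HCT116 colon tumor cells with PTEN knocked out; cells exposed to compound for 60 hours before readout; potency for loss of cell viability measured by luminescence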
# [2] = growth suppression of beta-catenin-knockout colon cells, dose response, cell-based, HCT116, human colon tumor (AID 1045); type: functional;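 also: HCT116 colon tumor cells with beta catenin knocked out; cells exposed to compound for 60 hours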
# [3] = Luminescence Cell-Based Dose Confirmation HTS to Identify Activators of 5'UTR Stem-Loop Driven Alpha-Synuclein mRNA Translation in H4 Neuroglioblastoma Cells. [Related pubchem assays: 1829 (Project Summary), 1814 (Primary HTS)]; type: functional
# [4] = Luminescence Cell-Based Dose Response HTS to Identify Activators of Luciferase Translation or Activity in H4 […] Cells. [Related pubchem assays: 1829 (Project Summary), 1814 (Primary HTS)]; type: functional
# H4 = assay: Luminescence Cell-Based Dose Response HTS to Identify Activators of 5'UTR Stem-Loop Driven Prion Protein mRNA Translation in H4 Neuroglioblastoma Cells. [Related pubchem assays: 1829 (Project Summary), 1814 (Primary HTS)]; type: functional; settings: Homo sapiens
# [5] = target: T1, Short transient receptor potential channel 4 (Mus musculus, UniProt Q9QUQ5); assay: mouse TRPC4 channel activators, dose response, cell-based, HEK293 TRPC4/mu-opioid, Fluo-4 calcium (AID 434937); type: functional
# T1 sequence (Q9QUQ5 whole entry): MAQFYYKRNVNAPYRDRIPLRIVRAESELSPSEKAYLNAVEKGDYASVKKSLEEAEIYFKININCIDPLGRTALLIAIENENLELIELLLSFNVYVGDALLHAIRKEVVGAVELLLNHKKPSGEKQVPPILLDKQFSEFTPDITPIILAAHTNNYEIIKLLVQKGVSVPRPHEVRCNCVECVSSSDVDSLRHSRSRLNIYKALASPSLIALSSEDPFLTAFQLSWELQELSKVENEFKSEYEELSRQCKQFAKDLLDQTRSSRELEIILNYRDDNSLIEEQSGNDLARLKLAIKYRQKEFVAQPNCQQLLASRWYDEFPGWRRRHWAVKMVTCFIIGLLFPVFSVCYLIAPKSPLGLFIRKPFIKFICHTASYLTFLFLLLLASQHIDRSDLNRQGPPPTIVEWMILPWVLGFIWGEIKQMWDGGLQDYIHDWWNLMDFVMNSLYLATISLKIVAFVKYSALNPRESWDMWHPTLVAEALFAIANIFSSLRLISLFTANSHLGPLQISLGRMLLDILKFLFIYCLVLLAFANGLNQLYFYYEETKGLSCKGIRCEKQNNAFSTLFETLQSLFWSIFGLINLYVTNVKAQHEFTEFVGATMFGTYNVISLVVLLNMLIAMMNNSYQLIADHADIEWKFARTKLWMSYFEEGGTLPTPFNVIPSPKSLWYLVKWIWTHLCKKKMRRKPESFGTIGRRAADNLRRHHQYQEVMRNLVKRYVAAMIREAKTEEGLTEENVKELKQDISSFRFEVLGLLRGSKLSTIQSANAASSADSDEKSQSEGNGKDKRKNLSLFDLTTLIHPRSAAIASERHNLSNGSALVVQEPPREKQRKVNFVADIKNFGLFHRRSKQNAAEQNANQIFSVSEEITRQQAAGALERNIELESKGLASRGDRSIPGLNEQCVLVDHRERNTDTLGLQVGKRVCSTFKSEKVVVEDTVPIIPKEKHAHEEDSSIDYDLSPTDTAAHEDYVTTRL
# HeLa = assay: HeLa cell cytotoxicity, dose response, cytotoxicity control for MITF activator project, CellTiter-Glo luminescence, cherry-pick samples (AID 540259); type: functional, cell-based; settings: Homo sapiens
# [6] = target: T2, Corticotropin-releasing factor receptor 2/Corticotropin-releasing factor-binding protein (Homo sapiens, UniProt P24387+Q13324); assay: activators of CRF receptor 2 with binding protein – uHTS hits, confirmation (AID 602473); type: functional; settings: read-out: EC50_Mean
# T2 sequence (Q13324 whole entry): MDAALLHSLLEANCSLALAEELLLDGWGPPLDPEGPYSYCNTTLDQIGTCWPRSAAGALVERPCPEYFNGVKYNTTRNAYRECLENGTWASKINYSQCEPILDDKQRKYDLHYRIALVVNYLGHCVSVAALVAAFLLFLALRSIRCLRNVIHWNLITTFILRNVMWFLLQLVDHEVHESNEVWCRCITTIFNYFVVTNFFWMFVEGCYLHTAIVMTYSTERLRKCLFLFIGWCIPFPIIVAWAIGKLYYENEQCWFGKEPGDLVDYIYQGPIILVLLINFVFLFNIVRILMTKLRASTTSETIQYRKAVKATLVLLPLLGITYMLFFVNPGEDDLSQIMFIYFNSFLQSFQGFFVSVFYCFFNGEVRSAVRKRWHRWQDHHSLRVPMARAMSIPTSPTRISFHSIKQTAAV
# T2 sequence (P24387 whole entry): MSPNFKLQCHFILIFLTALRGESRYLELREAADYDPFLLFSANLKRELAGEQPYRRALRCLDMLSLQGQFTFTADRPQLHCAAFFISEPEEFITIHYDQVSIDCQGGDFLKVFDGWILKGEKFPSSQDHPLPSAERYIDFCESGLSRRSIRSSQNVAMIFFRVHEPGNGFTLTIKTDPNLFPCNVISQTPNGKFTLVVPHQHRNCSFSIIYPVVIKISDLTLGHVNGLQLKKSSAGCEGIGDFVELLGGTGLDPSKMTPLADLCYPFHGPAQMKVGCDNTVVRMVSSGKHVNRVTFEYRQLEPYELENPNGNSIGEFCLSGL
# [7] = inhibitors of intracellular T. cruzi replication, confirmation, NIH3T3 host cells, beta-gal luminescence (AID 2044); type: functional, cell-based;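 also: intracellular parasites grown in NIH/3T3 mouse fibroblasts as host cells; luminescent beta-galactosidase reporter signal from transgenic T. cruzi replicating inside host cells; inhibitors lower the luminescence signal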
# [8] = cytotoxicity toward NIH3T3 fibroblasts, dose response, counter-screen, cell-based, ATP luminescence, mouse fibroblasts (AID 2010); type: functional;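 also: cells exposed to compound for about 90 hours before reading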
# [9] = target: T1, Short transient receptor potential channel 4; assay: mouse TRPC4 channel inhibitors, dose response, cell-based, HEK293 TRPC4/mu-opioid, Fluo-4 calcium (AID 434942); type: functional;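 also: potency of inhibitors blocking the TRPC4 calcium response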
# P388/ADR = assay: cells; type: functional; settings: Mus musculus
# SN12K1 = assay: cells; type: functional; settings: Homo sapiens
# P388 = assay: cells; type: functional; settings: Mus musculus
# Paired box protein Pax-8 = Paired box protein Pax-8 (Homo sapiens, UniProt Q06710); assay: inhibitors of PAX8-driven TPO luciferase reporter, dose response, RMG-I cells, cherry-pick (AID 687027); type: functional, cell-based;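 also: luciferase reporter driven by Pax8 target thyroperoxidase promoter measured by SteadyGlo luminescence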
# [10] = P. falciparum Dd2 growth inhibitors, dose response, SYBR Green, cherry-picked samples (AID 1159567); type: functional, cell-based
# [11] = HepG2 cell cytotoxicity, dose response, cytotoxicity control, cherry-picked samples (AID 1159577); type: functional, cell-based
# [12] = inhibitors of HIV Env-driven cell fusion, dose response, cherry-pick (AID 652057); type: functional, cell-based
# [13] = inhibitors of clade B AD8 Env fusion, dose response, cell-based, cherry-pick (AID 652062); type: functional;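 also: luciferase signal from cell-cell fusion driven by HIV-1 clade B AD8 Env; potency is for inhibitors of fusion seen as a drop in luminescence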
# [14] = target: T3, Microphthalmia-associated transcription factor (Homo sapiens, UniProt O75030); assay: TRPM1 promoter luciferase signal decrease, dose response, MITF inhibitor project, cell-based, SK-MEL-5, cherry-picked, set 3 (AID 493073); type: functional
# T3 sequence (O75030 whole entry): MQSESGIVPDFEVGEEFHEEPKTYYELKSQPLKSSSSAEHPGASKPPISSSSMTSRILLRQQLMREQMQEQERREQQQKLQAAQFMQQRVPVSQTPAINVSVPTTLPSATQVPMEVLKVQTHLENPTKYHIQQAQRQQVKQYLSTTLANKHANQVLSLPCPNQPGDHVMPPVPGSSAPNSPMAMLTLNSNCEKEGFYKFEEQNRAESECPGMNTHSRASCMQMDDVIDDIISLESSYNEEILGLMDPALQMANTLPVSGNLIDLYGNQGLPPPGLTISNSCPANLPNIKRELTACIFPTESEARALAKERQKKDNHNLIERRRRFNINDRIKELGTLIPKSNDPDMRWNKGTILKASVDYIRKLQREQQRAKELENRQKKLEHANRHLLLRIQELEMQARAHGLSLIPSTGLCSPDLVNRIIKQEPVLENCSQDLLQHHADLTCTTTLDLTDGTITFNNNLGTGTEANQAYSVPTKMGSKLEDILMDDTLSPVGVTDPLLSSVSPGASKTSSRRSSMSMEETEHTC
# Chain of Paired box protein Pax-8 (Q06710 whole entry): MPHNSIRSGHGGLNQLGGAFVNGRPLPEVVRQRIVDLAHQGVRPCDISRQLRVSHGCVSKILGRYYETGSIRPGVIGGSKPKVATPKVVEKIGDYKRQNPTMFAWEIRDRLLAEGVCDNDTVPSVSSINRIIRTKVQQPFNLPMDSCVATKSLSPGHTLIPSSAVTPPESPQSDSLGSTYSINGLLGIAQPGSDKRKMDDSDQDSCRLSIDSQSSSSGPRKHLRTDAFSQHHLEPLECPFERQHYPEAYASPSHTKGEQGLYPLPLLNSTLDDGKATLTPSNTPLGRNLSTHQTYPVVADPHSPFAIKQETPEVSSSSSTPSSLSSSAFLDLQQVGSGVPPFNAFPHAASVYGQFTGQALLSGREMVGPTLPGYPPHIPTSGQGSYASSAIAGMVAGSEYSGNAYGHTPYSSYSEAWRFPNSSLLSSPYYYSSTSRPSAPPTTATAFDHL
compound,measurement,setting,value
Cc1ccc(C(NC(=O)N2CCOCC2)=C(Cl)Cl)cc1F,EC50,[1],6.69 µM (active)
same,EC50,[2],4.71 µM (active)
Cc1ccc(-c2cc(C(F)F)n3ncc(C(=O)Nc4c(C)nn(Cc5ccccc5Cl)c4C)c3n2)cc1,EC50,[1],8.84 µM (active)
same,EC50,[2],8.23 µM (active)
COc1cccc(/C=C/C(=O)OC(C)C(=O)Nc2c(C)n(C)n(-c3ccccc3)c2=O)c1 (stereo not given),EC50,[3],10.5 µM (active)
same,EC50,[4],49.1 µM (active)
same,EC50,H4,> 120 µM (not active)
Oc1nc2cc3c(cc2cc1CN(Cc1nnnn1C1CCCC1)C1CCCC1)OCCO3,EC50,[3],> 120 µM (not active)
same,EC50,[4],> 120 µM (not active)
same,EC50,H4,59.4 µM (active)
CCOc1ccc2ncc(C(=O)c3ccc(OC)cc3)c(N3CCN(CC)CC3)c2c1,EC50,[5],5.96 µM (active)
COc1cccc(CNC(=O)CN2C(=O)CSc3ccc(S(=O)(=O)N4CCCCC4)cc32)c1,EC50,[3],> 120 µM (not active)
same,EC50,[4],> 120 µM (not active)
same,EC50,H4,> 120 µM (not active)
COc1cccc2cc(CC(=O)c3ccc(C)cc3C)c(=O)oc12,EC50,[3],43.3 µM (active)
same,EC50,[4],43.4 µM (active)
same,EC50,H4,11 µM (active)
same,AC50,HeLa,83.9 µM (active)
O=C(NC(=S)NCc1nc2ccccc2[nH]1)c1ccccc1F,EC50,[3],70.7 µM (active)
same,EC50,[4],25.6 µM (active)
same,EC50,H4,9.16 µM (active)
COCCN(C(=O)COC(=O)/C=C/c1ccccc1Cl)c1c(N)n(Cc2ccccc2)c(=O)[nH]c1=O,EC50,[3],26.2 µM (active)
same,EC50,[4],9.52 µM (active)
same,EC50,H4,> 120 µM (not active)
CNCCOc1ccc(Cl)c(Cl)c1,EC50,[5],0.944 µM (active)
O=C(NC1=NCCS1)C12CC3CC(C1)CC(C(=O)NC1=NCCS1)(C3)C2,EC50,[3],> 120 µM (not active)
same,EC50,[4],13.6 µM (inconclusive)
same,EC50,H4,9.63 µM (active)
CCc1ccc(-c2nc(CN3CCC(C(=O)N4CCN(c5ccccn5)CC4)CC3)c(C)o2)cc1,EC50,[1],7.51 µM (active)
same,EC50,[2],7.28 µM (active)
CCn1c(COc2ccccc2C)nc2ccccc21,AC50,HeLa,81 µM (active)
same,EC50,[6],4.28 µM (active)
CC(NCc1cc(Br)ccc1OCC(=O)NCc1ccccc1)c1ccccc1 (stereo not given),EC50,[7],2.53 µM (active)
same,EC50,[8],> 60 µM (not active)
same,EC50,[9],1.06 µM (active)
same,EC50,[5],7.5 µM (active)
CSCCC(NS(=O)(=O)c1ccc2c(c1)c(=O)n(C)c(=O)n2C)C(=O)NC1CCN(Cc2ccccc2)CC1 (stereo not given),EC50,[5],3.76 µM (active)
COc1ccc(C(CNC(=O)c2cccc(NS(=O)(=O)c3ccc(Br)cc3)c2)N(C)C)cc1 (stereo not given),EC50,[5],5.31 µM (active)
c1ccc2c(c1)NCc1cc3ccccc3nc1O2,GI50,P388/ADR,74.1 µM (inactive)
same,GI50,SN12K1,> 100 µM (inactive)
same,GI50,P388,> 100 µM (inactive)
COC1C(O)C(n2ncc3c(SC)nc(SC)nc32)OC1C(O)CO (stereo not given),GI50,P388/ADR,> 100 µM (inactive)
same,GI50,SN12K1,> 37.2 µM (inactive)
same,GI50,P388,98.2 µM (inactive)
O=C1NC(=O)C(CCO)(c2ccccc2)C(=O)N1,GI50,SN12K1,> 100 µM (inactive)
same,GI50,P388,> 100 µM (inactive)
CCOC(=O)c1c[nH]c2cc3c(cc2c1=O)CCS3(=O)=O.CCOC(=O)c1c[nH]c2ccc3c(c2c1=O)S(=O)(=O)CC3,GI50,P388/ADR,> 100 µM (inactive)
same,GI50,SN12K1,> 100 µM (inactive)
same,GI50,P388,> 100 µM (inactive)
Cc1ccc(C#CS(=O)(=O)C(F)(F)F)cc1,GI50,P388/ADR,> 100 µM (inactive)
same,GI50,SN12K1,> 100 µM (inactive)
same,GI50,P388,90.6 µM (inactive)
O=C(O)c1ccc(Nc2c3ccccc3nc3ccccc23)cc1,GI50,P388/ADR,22.4 µM (inactive)
same,GI50,SN12K1,60.5 µM (inactive)
same,GI50,P388,3.92 µM (inactive)
COC(=O)[C@]12CCCCC=C1N(Cc1cccc3ccccc13)C(=O)[C@H](CC(=O)N1CCN(C(=O)c3ccco3)CC1)C2,AC50,Paired box protein Pax-8,1.59 µM (active)
CN(C)C(=O)c1cccc(-c2cccc(-c3nc(C(=O)NCc4ccccc4)cc4c3[C@@H](CCO)N([S@+]([O-])C(C)(C)C)C4)c2)c1,AC50,[10],1.17 µM (active)
same,AC50,[11],17.5 µM (active)
Cc1ccc(S(=O)(=O)N(C)C[C@@H]2Oc3ccc(NC(=O)Cc4cn(C)c5ccccc45)cc3CC(=O)N([C@H](C)CO)C[C@@H]2C)cc1,AC50,[12],1.09 µM (active)
same,AC50,[13],14.5 µM (active)
C[C@H](CO)N1C[C@H](C)[C@H](CN(C)S(=O)(=O)c2cccs2)Oc2ccc(NC(=O)Cc3ccccc3)cc2CC1=O,AC50,[12],< 0.26 µM (active)
same,AC50,[13],< 0.26 µM (active)
C[C@H](CO)N1C[C@H](C)[C@H](CN(C)C(=O)[C@H](C)c2ccccc2)OCc2ccccc2-c2c(n(C)c3ccccc23)C1=O,AC50,[10],4.15 µM (active)
same,AC50,[11],34.4 µM (active)
Cc1ccccc1S(=O)(=O)N1CC(=O)N2[C@H](C1)[C@@H](c1ccc(C#Cc3ccccc3)cc1)[C@@H]2CO,AC50,[10],3.52 µM (active)
same,AC50,[11],15.8 µM (active)
COc1ccc(C)cc1Nc1nc(N)c2cc(OC)c(OC)cc2n1,AC50,[14],14.2 µM (active)
O=P1(N(CCCl)CCCl)NCCCO1 (stereo not given) [CYCLOPHOSPHAMIDE ANHYDROUS],GI50,P388/ADR,196 µM (inactive)
same,GI50,SN12K1,> 245 µM (inactive)
same,GI50,P388,229 µM (inactive)
